Values quoted from earlier work in patent publication US6555140B1, “Composition and method for enhancing male fertility and libido” (priority 1999, dated 2003).

Tests used:
[1] = in water
[2] = for share of the ingested amount metabolically degraded: transported from inside the intestine into the blood stream

Solubility [1]	share of what is ingested metabolically available [2]	share of the ingested amount metabolically degraded [2]	Compound
Soluble in water up to 50 mg/ml	about 70%	about 30%	NCCCNCCCCNCCCN [Spermine Free Base, Spermine]
Soluble in water up to 50 mg/ml	about 70%	about 30%	NCCCCNCCCN [Spermidine Free Base, Spermidine]
